{"source": "patent US20230210864A1", "about": "“AGENT FOR PROMOTING CORNEAL ENDOTHELIAL CELL ADHESION” (Senju Pharmaceutical Co., Ltd., priority 2007, published 2023)", "key": {"[1]": {"tested_on": "monkey corneal endothelial cells", "experiment": "Optimal concentration of Y-27632 for monkey corneal endothelial cells, viable cell count by CellTiter-Glo", "type": "cell-based, Macaca fascicularis", "description": "Monkey corneal endothelial cells (primary culture) collected in the same manner as in Example 2 were placed in media for corneal endothelium each added with Y-27632 at 1, 10, 33 and 100 μM and a medium for corneal endothelium without addition of Y-27632, and stirred to the same concentration, and the cells were seeded on a 96 well plate at a density of about 2000 cells per well. At 24 hr from the start of the culture, viable cells were counted using CellTiter-Glo (registered trade mark, Promega) (FIG. 7)."}, "[2]": {"tested_on": "monkey corneal endothelial cells", "experiment": "Apoptosis of monkey corneal endothelial cells (flow cytometry with Annexin V and PI)", "type": "cell-based, Macaca fascicularis", "settings": "Y-27632 10 μM, day 1 of the passage culture", "description": "The Macaca fascicularis corneal endothelial cells passage-cultured in the same manner as in Example 6 were subcultured to a dilution of ¼. A medium for corneal endothelium added with Y-27632 (10 μM) was used for the ROCK inhibitor(+) group and a medium for corneal endothelium without addition of Y-27632 was used for the ROCK inhibitor(−) group. On day 1 of the passage culture, all the cells including those in the medium were collected using 0.05% trypsin and subjected to flow cytometry using Annexin V and PI (Propidium Iodide), and apoptosis was examined (FIGS. 14 and 15)."}, "[3]": {"tested_on": "monkey corneal endothelial cells", "experiment": "Primary culture of monkey corneal endothelial cells, toluidine blue staining, total area of cultured cells (Image J)", "type": "cell-based, Macaca fascicularis", "settings": "Y-27632 10 μM, day 10", "description": "From the corneal tissue isolated from Macaca fascicularis euthanized, Descemet's membrane with corneal endothelial cells attached thereto was separated. In the same manner as in Example 2, for the ROCK inhibitor(+) group, the Descemet's membrane was placed in a medium for corneal endothelium added with Y-27632 (10 μM) and incubated under the conditions of 37° C., 5% CO2 for 10 min. For the ROCK inhibitor(−) group, the membrane was placed in a medium for corneal endothelium without addition of Y-27632 and incubated for 10 min under the same conditions. As the medium for corneal endothelium, the same cell culture medium as in Example 1 was used. The Descemet's membrane after the incubation was incubated together with Dispase II (1.2 U/ml, Roche Applied Science) under the conditions of 37° C., 5% CO2 for 45 min, and the corneal endothelial cells were mechanically separated by a pipetting operation. The separated corneal endothelial cells were centrifuged and stirred in the media for corneal endothelium with Y-27632(+) and Y-27632(−) to the same concentration, and the cells were seeded on a 96 well plate at a density of about 2000 cells per well. […] The total area of the cells was measured using Image J (National Institutes of Health) and analyzed (FIG. 6C)."}, "[4]": {"tested_on": "rabbit corneal endothelial cells", "experiment": "Culture of rabbit corneal endothelial cells with Y-27632, cells counted by MTS assay", "type": "cell-based", "settings": "primary culture, Y-27632 10 μM", "description": "From a rabbit corneal tissue isolated immediately after euthanasia, Descemet's membrane with corneal endothelial cells attached thereto was separated. The Descemet's membrane was incubated together with Dispase II (1.2 U/ml, Roche Applied Science) under the conditions of 37° C., 5% CO2 for 45 min, and the corneal endothelial cells were mechanically separated by a pipetting operation. The separated corneal endothelial cells were centrifuged, the cells of a ROCK inhibitor(+) group were stirred in a medium for corneal endothelium added with Y-27632 (10 μM) and the cells of a ROCK inhibitor(−) group were stirred in a medium for corneal endothelium without addition of Y-27632, to the same concentration, and the cells were seeded on a 96 well plate at a density of about 2000 cells per well. As a medium for corneal endothelium, a culture medium (DMEM, Gibco Invitrogen) added with 1% fetal bovine serum and […] bFGF (Gibco Invitrogen) was used. The plate was pre-treated with an FNC coating mix (Athena ES) for 10 min. […] From day 1 to day 3 after the start of the culture, the cells were counted every 24 hr by MTS ([3-(4,5-dimethylthiazol-2-yl)-5-(3-carboxymethoxyphenyl)-2-(4-sulfophenyl)-2H-tetrazolium]) assay using CellTiter 96 (registered trade mark) AQueous One Solution Cell Proliferation (Promega) (FIG. 2)."}, "[5]": {"tested_on": "monkey corneal endothelial cells", "experiment": "Density of cultured monkey corneal endothelial cells over repeated passages", "type": "cell-based, Macaca fascicularis", "settings": "Y-27632 10 μM, passage repeated 7 times", "description": "From the corneal tissue isolated from Macaca fascicularis euthanized, Descemet's membrane with corneal endothelial cells attached thereto was separated. The Descemet's membrane was incubated together with Dispase II (1.2 U/ml, Roche Applied Science) under the conditions of 37° C., 5% CO2 for 45 min, and the corneal endothelial cells were mechanically separated by a pipetting operation. The separated corneal endothelial cells were centrifuged and seeded on a medium for corneal endothelium. The corneal endothelial cells that reached confluent were incubated with 0.05% trypsin under the conditions of 37° C., 5% CO2 for 10 min, and passage-cultured. A medium for corneal endothelium added with Y-27632 (10 μM) was used for the ROCK inhibitor(+) group and a medium for corneal endothelium without addition of Y-27632 was used for the ROCK inhibitor(−) group. At 72 hr from the start of the culture, the culture medium was exchanged and, after 72 hr, both the ROCK inhibitor(+) group and ROCK inhibitor(−) group were cultured in a normal medium for corneal endothelium free of Y-27632. On every passage, photographs of the cells were taken with a phase contrast microscope, cell density was measured, and the influence of Y-27632 on the density of the cultured monkey corneal endothelial cells was studied."}}, "data": [{"smiles": "CC(N)[C@H]1CC[C@H](C(=O)Nc2ccncc2)CC1", "note": "(single isomer, unassigned; (+)) [Y-27632, (+)-trans-4-(1-aminoethyl)-1-(4-pyridylcarbamoyl)cyclohexane]", "values": [{"measurement": "most effective concentration for monkey corneal endothelial cells", "setting": "[1]; of 1, 10, 33 and 100 μM, 24 hr", "value": 10, "unit": "µM"}, {"measurement": "number of cells that adhered onto the plate at 24 hr, compared to medium without Y-27632 and media with other concentrations", "setting": "[1]; primary culture, 10 μM Y-27632 (1, 10, 33 and 100 μM tested)", "value": "significantly high"}, {"measurement": "number of apoptotic cells per 1×10^4 cells, compared to ROCK inhibitor(−) group", "setting": "[2]", "value": "significant decrease"}, {"measurement": "ratio of apoptotic cells to the entire cells, compared to ROCK inhibitor(−) group", "setting": "[2]", "value": "significant decrease"}, {"measurement": "total area of cultured cells as compared to the ROCK inhibitor(−)", "setting": "[3]", "value": "about 1.6 fold"}, {"measurement": "cell adhesion in 24 hr (day 1) after cell seeding as compared to the ROCK inhibitor(−) group", "setting": "[4]", "value": "about 2.8 fold"}, {"measurement": "cell growth at day 3 when the cells reached confluent, difference from ROCK inhibitor(−) group", "setting": "[4]; day 3", "value": "a significant difference was not found"}, {"measurement": "cell density throughout the passage culture, compared to ROCK inhibitor(−) group", "setting": "[5]", "value": "higher cell density"}]}]}
